How the values were obtained:
IRAK4 enzyme = target: T1, IRAK4 enzyme (Homo sapiens, UniProt Q9NWZ3); assay: IRAK4 Biochemical Assay (TR-FRET, STK1 KinEASE); settings: 500 μM ATP, Table 2 second part (compounds 33-343), read-out: IC50 IRAK4-HTBS
T1 construct: purchased Carna Biosciences, Chuo-ku, Kobe, Japan
T1 sequence (Q9NWZ3 1-460): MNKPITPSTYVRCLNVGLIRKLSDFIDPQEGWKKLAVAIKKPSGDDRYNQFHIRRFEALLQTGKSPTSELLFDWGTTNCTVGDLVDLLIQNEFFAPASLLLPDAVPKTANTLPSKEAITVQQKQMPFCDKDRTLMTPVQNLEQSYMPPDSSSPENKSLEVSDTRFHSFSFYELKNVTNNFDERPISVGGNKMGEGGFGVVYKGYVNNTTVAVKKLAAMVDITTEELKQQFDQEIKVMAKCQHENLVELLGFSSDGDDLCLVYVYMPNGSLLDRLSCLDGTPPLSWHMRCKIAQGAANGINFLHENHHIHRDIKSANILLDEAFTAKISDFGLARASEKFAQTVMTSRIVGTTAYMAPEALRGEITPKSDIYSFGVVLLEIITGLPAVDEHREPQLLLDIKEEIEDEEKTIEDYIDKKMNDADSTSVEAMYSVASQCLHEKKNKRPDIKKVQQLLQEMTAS
Method in brief: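 Human IRAK4 (0.75 nM) preincubated 15 min with compound and 2 μM STK1 peptide, then reacted 120 min at room temperature with 500 μM ATP in HEPES pH 7.0 buffer with MgCl2 and DTT. EDTA stop with Cryptate anti-phosphopeptide antibody and tracer, 60 min; TR-FRET read as 665/615 nm ratio.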

TNFα = assay: IRAK4 Monocyte TNFα Cell Based Assay (LPS-stimulated, TR-FRET TNFα detection); design: species or system human; settings: Homo sapiens, Monocyte, human monocytes, LPS-stimulated; Table 2 second part (compounds 33-343); read-out: EC50 MONO TNF HTRF
Method in brief: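 Monocytes (5,000 cells/well) treated with compound (0.1% DMSO) for 1 hour at 37° C, then stimulated with 50 pg/ml LPS for 4 hours. TNFα in medium quantified by TR-FRET two-antibody detection after overnight room-temperature incubation. Percent of control calculated against unstimulated (0%) and LPS-stimulated (100%) cells.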

Row | SMILES | IC50 (IRAK4 enzyme) | EC50 (TNFα)
1 | COC(=O)N[C@@H]1[C@@H]2CC[C@H]1CN(c1nnc(-c3cnc(-c4ccc5cc(C#N)cnn45)cc3NC(C)C)s1)C2 [Example 59, methyl ((1R,5S,8s)-3-(5-(6-(3-cyanopyrrolo[1,2-b]pyridazin-7-yl)-4-(isopropylamino)pyridin-3-yl)-1,3,4-thiadiazol-2-yl)-3-azabicyclo[3.2.1]octan-8-yl)carbamate] | 1.97 nM | 14.7 nM
2 | CC(C)Nc1cc(-c2ccc3cc(C#N)cnn23)ncc1-c1nnc(N2C[C@H]3CC[C@@H](C2)[C@@H]3NC(=O)CN=S(C)(C)=O)s1 [Example 98, N-((1R,5S,8s)-3-(5-(6-(3-cyanopyrrolo[1,2-b]pyridazin-7-yl)-4-(isopropylamino)pyridin-3-yl)-1,3,4-thiadiazol-2-yl)-3-azabicyclo[3.2.1]octan-8-yl)-2-((dimethyl(oxo)-16-sulfanylidene)amino)acetamide] | 1.13 nM | 3.2 nM
3 | CC(=O)N(C)[C@@H]1[C@@H]2CC[C@H]1CN(c1nnc(-c3cnc(-c4ccc5cc(C#N)cnn45)cc3NC(C)C)s1)C2 [Compound 300, N-((1R,5S,8s)-3-(5-(6-(3-cyanopyrrolo[1,2-b]pyridazin-7-yl)-4-(isopropylamino)pyridin-3-yl)-1,3,4-thiadiazol-2-yl)-3-azabicyclo[3.2.1]octan-8-yl)-N-methylacetamide] | 0.98 nM | 5.3 nM
4 | C[C@]1(O)C[C@@H](c2nnc(-c3cnc(-c4ccc5cc(C#N)cnn45)cc3NC3COC3)s2)C1 [Example 200, 7-(5-(5-((1s,3s)-3-hydroxy-3-methylcyclobutyl)-1,3,4-thiadiazol-2-yl)-4-(oxetan-3-ylamino)pyridin-2-yl)pyrrolo[1,2-b]pyridazine-3-carbonitrile] | 0.63 nM | 24.1 nM
5 | CC(C)Nc1cc(-c2ccc3cc(C#N)cnn23)ncc1-c1nnc([C@H]2CC[C@@H](NC(=O)C(C)(C)O)CC2)s1 [Compound 312, N-((1s,4s)-4-(5-(6-(3-cyanopyrrolo[1,2-b]pyridazin-7-yl)-4-(isopropylamino)pyridin-3-yl)-1,3,4-thiadiazol-2-yl)cyclohexyl)-2-hydroxy-2-methylpropanamide] | 0.91 nM | 17.5 nM
6 | CC(C)Nc1cc(-c2ccc3cc(C#N)cnn23)ncc1-c1nnc(N2C[C@H]3CC[C@@H](C2)[C@@H]3N)s1 [Example 60, 7-(5-(5-((1R,5S,8s)-8-amino-3-azabicyclo[3.2.1]octan-3-yl)-1,3,4-thiadiazol-2-yl)-4-(isopropylamino)pyridin-2-yl)pyrrolo[1,2-b]pyridazine-3-carbonitrile] | 0.97 nM | 8.5 nM
7 | CC(=O)N[C@H]1C[C@@H](c2nnc(-c3cnc(-c4ccc5cc(C#N)cnn45)cc3NC(C)C)s2)C1 [Compound 279, N-((1s,3s)-3-(5-(6-(3-cyanopyrrolo[1,2-b]pyridazin-7-yl)-4-(isopropylamino)pyridin-3-yl)-1,3,4-thiadiazol-2-yl)cyclobutyl)acetamide] | 0.4 nM | 15.9 nM
8 | COC(=O)NC[C@H]1C[C@H](Nc2cc(-c3ccc4cc(C#N)cnn34)ncc2-c2nnc(N3C[C@H]4CC[C@@H](C3)[C@@H]4NC(C)=O)s2)C1 [Example 52, methyl (((1R,3r)-3-((5-(5-((1R,5S,8S)-8-acetamido-3-azabicyclo[3.2.1]octan-3-yl)-1,3,4-thiadiazol-2-yl)-2-(3-cyanopyrrolo[1,2-b]pyridazin-7-yl)pyridin-4-yl)amino)cyclobutyl)methyl)carbamate] | 0.82 nM | 4.1 nM

Reference: patent US12060351B2, “Thiadiazole IRAK4 inhibitors” (Gilead Sciences, Inc., priority 2018, dated 2024)
